Reference: patent US6071902A, “Method for treating excessive aggression” (Eli Lilly and Company, priority 1997, dated 2000)

Experiments:
[1] = test system: excessive aggression; assay: double-blind multicenter clinical trial, olanzapine or placebo; format: in vivo, human; conditions: patients randomized to olanzapine or placebo
From the text: A double-blind multicenter clinical trial was designed to assess the safety and efficacy of olanzapine. Patients were randomized to olanzapine or placebo.

[2] = test system: muscarinic cholinergic receptor; assay: pharmacological studies, muscarinic cholinergic receptor activity
[3] = detection of radiolabelled olanzapine in saliva; format: in vivo
Protocol: For example, in the treatment of adult humans, dosages of from 5 to 20 mg per day may be used. A once a day dosage is normally sufficient, although divided doses may be administered. For treatment of extreme aggression, a dose range of from 5 to 20 mg per day is suitable.

[4] = test system: 5-HT1C receptor; assay: pharmacological studies, 5-HT1C receptor activity

For Cc1cc2c(s1)Nc1ccccc1N=C2N1CCN(C)CC1 [olanzapine, 2-methyl-4-(4-methyl-1-piperazinyl)-10H-thieno[2,3-b][1,5]benzodiazepine], the “efficacy in treatment of excessive aggression” value [1] was “can be useful for the treatment of excessive aggression”, the “muscarinic cholinergic receptor activity” value [2] was “has muscarinic cholinergic receptor activity” and the detection in saliva [3] was “can be detected in the saliva”. For the same compound, the “activity at the 5-HT1C receptor” value [4] was “active”.
